Earlier results on 1 compound are cited in patent US5122376A, “Calcitonin gene related peptide” (ISF Societa per Azioni, priority 1989, dated 1992).

For the series the following is noted: compared with sodium caprate.

Regarding `CC1(C)[C@@H](O)CC[C@]2(C)[C@H]3C(=O)C=C4[C@@H]5C[C@@](C)(C(=O)[O-])CC[C@]5(C)CC[C@@]4(C)[C@]3(C)CC[C@@H]12.[Na+]` [sodium glycyrrhetinate], the “absorption-enhancing agent for insulin (nasal absorption)” value is given as “weaker than sodium caprate”.
